Data as given in US9724380B2, “Method and compositions for synchronizing time of insemination in gilts” (JBS UNITED ANIMAL HEALTH II LLC, priority 2012, dated 2017).

Assays:
gilts [1] = experiment: Example 5: estrus observation after triptorelin gel dose groups; format: in vivo, swine; details: raw average, PTK 2-07
Method: All gilts were individually fed MATRIX® as a top-dress for 14 or 15 days at the recommended rate of 15 mg/gilt/day. Gilts were withdrawn from MATRIX® feeding (last top-dress in the morning on Day 0) and allocated to each of the following treatments. Controls were vehicle gel treated (vehicle gel without triptorelin) at 120 (+/−2) hours following MATRIX® withdrawal (last top dress). The other gilts were given 100, 200 or 400 mcg triptorelin as the acetate in a methylcellulose gel formulation 120 (+/−2) hours following MATRIX® withdrawal. The four treatments were: • 1. Vehicle gel (VG): vehicle gel without triptorelin at 120 (+/−2) hours after MATRIX® withdrawal. • 2. TG 100: 100 mcg (2 mL 50 mcg/mL) triptorelin gel at 120 (+/−2) hours after MATRIX® withdrawal. • 3. TG 200: 200 mcg (2 mL 100 mcg/mL) triptorelin gel at 120 (+/−2) hours after MATRIX® withdrawal. • 4. TG 400: 400 mcg (2 mL 200 mcg/mL) triptorelin gel at 120 (+/−2) hours after MATRIX® withdrawal.
Triptorelin (pGlu-His-Trp-Ser-Tyr-D-Trp-Leu-Arg-Pro-Gly-NH2) was supplied in the acetate form, from Bachem, Torrance, Calif. (Item H-4075 CGMP grade). Triptorelin gel (100-400 mcg/2 mL dose) was formulated by Argenta (Auckland, NZ) in a gel composed of Methocel Premium A4000 (Dow Chemical), citrate buffer (pH 5.5), NaCl, methionine, and methyl and propyl parabens. Fifty-four milliliters of triptorelin gel (100 mcg triptorelin acetate/mL) was packaged in Amber Borosilicate Glass Serum Vials (610206-50) with a Gray Butyl Pharmaceutical Serum Vial Stopper (73828A-SS) with a Standard Aluminum Seal (SAS20NAT). […] MATRIX® was supplied as the US commercially available form.
For post-treatment estrus detection, gilts were housed in individual pens. Boars were housed in separate rooms, and/or at least 12 m away and downwind. To elicit signs of estrus, a mature boar was walked slowly in the alley in front of the gilts' crates, exposing each test gilt to visual, auditory and olfactory signals from the boar for up to 5 minutes. In keeping with standard practice at commercial farms, while the boar was near the front of the gilt's crate, estrus was tested by an experienced person applying back pressure to the midsection of the gilt combined with side rubbing. Estrus was confirmed when a gilt stood rigidly to the back pressure, with no vocalization and with some indication of an ear reflex. Gilts were not exposed to boars during the first three days after withdrawal of MATRIX® (Day 0 to Day 2). Estrus detection was performed daily on all gilts from Day 3 to Day 7.
A single 2 mL dose of triptorelin gel or vehicle gel was deposited within approximately 1-2 cm posterior to the cervix with a catheter similar to those used for artificial insemination. The dose was delivered using a standard multi-dose applicator attached to the catheter. […]

gilts [2] = experiment: Example 1: estrus observation (boar exposure, back pressure) after triptorelin gel; format: in vivo, swine; details: 200 mcg T at 120 h post-MATRIX; raw average; PTK 1-07 (rep 3)
Method: All gilts were individually fed MATRIX® as a top-dress for 14 days at the recommended rate of 15 mg/gilt/day. Gilts were withdrawn from MATRIX® feeding (last top feed in the morning on Day 0) and allotted to treatments. Controls were treated with a 1.2% methylcellulose gel formulation without triptorelin at 96 hours following MATRIX® withdrawal (last top-dress). The remaining gilts received 200 mcg triptorelin, as the acetate, in a 1.2% methylcellulose gel formulation intravaginally at various times after MATRIX® withdrawal. The four treatments were: 1) vehicle gel (VG) treatment at 96 hours after MATRIX® withdrawal, 2) triptorelin gel (TG) treatment at 96 hours after MATRIX® withdrawal, 3) TG treatment at 120 hours after MATRIX® withdrawal and 4) TG treatment at 144 hours after MATRIX® withdrawal. All gilts were monitored for their estrous and ovulatory status as described below. Gilts included in replicate 1 were selected from terminal line commercial production gilts located in grow/finish barns. Sexual maturity, as indicated by one or more estrous periods, was not verified prior to the start of MATRIX® feeding. Gilts included in replicate 2 were selected from a maternal line gilt population. Sexual maturity was verified by at least one estrous period verified and recorded prior to starting MATRIX® feeding. […]
Data were analyzed using the Mixed Models procedures of SAS. […]

With `CC(C)C[C@H](NC(=O)[C@@H](Cc1c[nH]c2ccccc12)NC(=O)[C@H](Cc1ccc(O)cc1)NC(=O)[C@H](CO)NC(=O)[C@H](Cc1c[nH]c2ccccc12)NC(=O)[C@H](Cc1c[nH]cn1)NC(=O)[C@@H]1CCC(=O)N1)C(=O)N[C@@H](CCCNC(=N)N)C(=O)N1CCC[C@H]1C(=O)NCC(N)=O` [T, pGlu-His-Trp-Ser-Tyr-D-Trp-Leu-Arg-Pro-Gly-NH2] the “Estrous Expression (%)” value (gilts [1]; 100 mcg T at 120 h post-MATRIX) was 75.0%, the “Estrous Expression (%)” value (gilts [1]; 200 mcg T at 120 h post-MATRIX) was 81.0% and the “Estrous Expression (%)” value (gilts [2]) was 100.0%.
